From US20120035247A1, “RNA Interference Mediated Inhibition of Signal Transducer and Activator of Transcription 6 (STAT6) Gene Expression Using Short Interfering Nucleic Acid (siNA)” (Merck Sharp & Dohme Corp., priority 2009, published 2012)
[invAb] = inverted abasic unit; m = 2'-O-methyl; r = 2'-OH (RNA); f = 2'-fluoro

Tests used:
STAT6 mRNA [1] = assay: STAT6 siNA screen and dose response in human A549 cells, STAT6 mRNA by quantitative RT-PCR (Taqman); format: cell-based; details: for % KD STAT6 mRNA 10 nM / IC50: Table 4, human A549 cells; for % KD STAT6 mRNA 10 nM / IC50 / % KD STAT6: mean ± S.D.; for % KD STAT6 10 nM: Table 5, A549 cells, three experiments, mean ± standard deviation; for % KD STAT6: human A549 cells, 10 nM siNA, 24 hrs, normalized to GAPDH and non-targeting control, n = 3
Procedure, shortened: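 A549 cells were transfected with siNA–RNAiMax complexes at a final 10 nM siNA and incubated 24 h without a medium change. STAT6 mRNA was measured by TaqMan qRT-PCR on cell lysates. Knock-down was calculated by the comparative Ct (ΔΔCt) method against the non-targeting control siNA, with relative expression taken as 2^−ΔΔCt.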

STAT6 mRNA [2] = assay: STAT6 siNA screen in mouse NIH 3T3 cells, STAT6 mRNA by quantitative RT-PCR (Taqman); format: cell-based; details: mouse NIH3T3 cells, 10 nM siNA, 24 hrs, normalized to GAPDH and non-targeting control, n = 2
Procedure, shortened: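 NIH 3T3 cells, 5000/well, transfected after 24 h with siNA (10 nM final) via RNAiMax and harvested 24 h later. STAT6 mRNA quantified by TaqMan RT-qPCR with GAPDH; knock-down by comparative Ct (2^−ΔΔCt) against non-targeting control siNA.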

[3] = tested on: human STAT4 mRNA transcript; assay: STAT4 specificity screen in human A549 cells, STAT4 mRNA by quantitative RT-PCR; format: cell-based; details: three experiments, mean ± standard deviation
Method: A549 (human; ATCC cat# CCL-185): Cells were cultured at 37° C. in the presence of 5% CO2 and grown in Ham's F12K medium with 2 mM L-glutamine adjusted to contain 1.5 g/L sodium bicarbonate and supplemented with fetal bovine serum at a final concentration of 10%, 100 μg/mL of streptomycin, and 100 U/mL penicillin.
A series of probes and primers were used to detect the various mRNA transcripts of the genes of 13-Actin (human cell line only), and of STATE and GAPDH in mouse and human cell lines. All Taqman probes and primers for the experiments here-in described were supplied as pre-validated sets by Applied Biosystems, Inc. (see Table 2).
The assays were performed on an ABI 7900 instrument, according to the manufacturer's instructions. A TaqMan Gene Expression Master Mix (provided in the Cells-to-CTT™, Applied Biosystems, Cat #4399002) was used. The PCR reactions were carried out at 50° C. for 2 min, 95° C. for 20 min followed by 40 cycles at 95° C. for 15 secs and 60° C. for 1 min.
The expression level of the gene of interest and % knock-down was calculated using Comparative Ct method:
ΔΔCt=ΔCt(Target siNA)−ΔCt(NTC)
Relative expression level=2^−ΔΔCt
The non-targeting control siNA was, unless otherwise indicated, chosen as the value against which to calculate the % knock-down, because it is the most relevant control.
The siNAs from Table 4 were tested in human A549 cell line at a lower concentration (1 nM versus the original screening concentration of 10 nM) to determine the effect of the STATE siRNAs on the mRNA transcript of human STAT4.

mouse spleen T cells = details: in vitro; cited from earlier work
eosinophilia and AHR = details: rat model of allergic disease; cited from earlier work

Molecule | % KD STAT6 (STAT6 mRNA [1]) | % KD STAT6 (STAT6 mRNA [2]) | other results
29999-DC: STAT6 siNA duplex; sense SEQ ID NO: 62, antisense SEQ ID NO: 63; target GUUCGAUUCCUGUUGGGCU, site 1148 (sense GUUCGAUUCCUGUUGGGCUTT; antisense AGCCCAACAGGAAUCGAACUU; sense: DNA at AGT, 2'-fluoro at CU, [invAb] at 5' end, 3' end, backbone not given here; antisense: sugars from the 5' end rrrffmmfmmmmmffmmmfmm, backbone not given here) [STAT6 siNA duplex; target GUUCGAUUCCUGUUGGGCU, site 1148] | 72.8 ± 1% | 53.4 ± 3.1% | % KD STAT6 mRNA 10 nM (STAT6 mRNA [1]): 72.8 ± 1^ %; IC50 (STAT6 mRNA [1]): 48.7 ± 21.7 pM; % KD STAT6 10 nM (STAT6 mRNA [1]): 72.8 ± 1.0%; % KD STAT4 1 nM [3]: −17.4 ± 20.9%
30005-DC: STAT6 siNA duplex; sense SEQ ID NO: 74, antisense SEQ ID NO: 75; target CUGCACAGCUUGAUAGAAA, site 755 (sense CUGCACAGCUUGAUAGAAATT; antisense UUUCUAUCAAGCUGUGCAGUU; sense: DNA at AGT, 2'-fluoro at CU, [invAb] at 5' end, 3' end, backbone not given here; antisense: sugars from the 5' end rrrffmffmmmffmfmfmmmm, backbone not given here) [STAT6 siNA duplex; target CUGCACAGCUUGAUAGAAA, site 755] | 70 ± 8.9% | −8 ± 0.5% | % KD STAT6 mRNA 10 nM (STAT6 mRNA [1]): 70 ± 8.9%; IC50 (STAT6 mRNA [1]): 23.2 ± 10.3 pM; % KD STAT6 10 nM (STAT6 mRNA [1]): 70.0 ± 8.9%; % KD STAT4 1 nM [3]: 13.2 ± 14.4%
30024-DC: STAT6 siNA duplex; sense SEQ ID NO: 112, antisense SEQ ID NO: 113; target CGCUGUCUCCGGAGCUACU, site 1850 (sense CGCUGUCUCCGGAGCUACUTT; antisense AGUAGCUCCGGAGACAGCGUU; sense: DNA at AGT, 2'-fluoro at CU, [invAb] at 5' end, 3' end, backbone not given here; antisense: sugars from the 5' end rrrmmffffmmmmmfmmfmmm, backbone not given here) [STAT6 siNA duplex; target CGCUGUCUCCGGAGCUACU, site 1850] | 38.9 ± 11.2% | 19.5 ± 5.6% | –
30025-DC: STAT6 siNA duplex; sense SEQ ID NO: 114, antisense SEQ ID NO: 115; target AACGCUGUCUCCGGAGCUA, site 1848 (sense AACGCUGUCUCCGGAGCUATT; antisense UAGCUCCGGAGACAGCGUUUU; sense: DNA at AGT, 2'-fluoro at CU, [invAb] at 5' end, 3' end, backbone not given here; antisense: sugars from the 5' end rrrffffmmmmmfmmfmffmm, backbone not given here) [STAT6 siNA duplex; target AACGCUGUCUCCGGAGCUA, site 1848] | 48.1 ± 7.5% | 34.2 ± 1.8% | –
30026-DC: STAT6 siNA duplex; sense SEQ ID NO: 116, antisense SEQ ID NO: 117; target GCAGUGGUUUGAUGGUGUC, site 1816 (sense GCAGUGGUUUGAUGGUGUCTT; antisense GACACCAUCAAACCACUGCUU; sense: DNA at AGT, 2'-fluoro at CU, [invAb] at 5' end, 3' end, backbone not given here; antisense: sugars from the 5' end rrrmffmffmmmffmffmfmm, backbone not given here) [STAT6 siNA duplex; target GCAGUGGUUUGAUGGUGUC, site 1816] | 58.4 ± 8.1% | 59.8 ± 1.1% | –
30027-DC: STAT6 siNA duplex; sense SEQ ID NO: 118, antisense SEQ ID NO: 119; target AAGACCCGGGCAUCGCUGA, site 1025 (sense AAGACCCGGGCAUCGCUGATT; antisense UCAGCGAUGCCCGGGUCUUUU; sense: DNA at AGT, 2'-fluoro at CU, [invAb] at 5' end, 3' end, backbone not given here; antisense: sugars from the 5' end rrrmfmmfmfffmmmffffmm, backbone not given here) [STAT6 siNA duplex; target …UCGCUGA, site 1025] | −0.8 ± 12.4% | −3.3 ± 3.1% | –
30028-DC: STAT6 siNA duplex; sense SEQ ID NO: 120, antisense SEQ ID NO: 121; target CUGCCAAAGACCUGUCCAU, site 2049 (sense CUGCCAAAGACCUGUCCAUTT; antisense AUGGACAGGUCUUUGGCAGUU; sense: DNA at AGT, 2'-fluoro at CU, [invAb] at 5' end, 3' end, backbone not given here; antisense: sugars from the 5' end rrrmmfmmmfffffmmfmmmm, backbone not given here) [STAT6 siNA duplex; target CU…UGUCCAU, site 2049] | 29.5 ± 6.4% | 31.1 ± 4.3% | –
30029-DC: STAT6 siNA duplex; sense SEQ ID NO: 122, antisense SEQ ID NO: 123; target GUGUCCUGGACCUCACCAA, site 1830 (sense GUGUCCUGGACCUCACCAATT; antisense UUGGUGAGGUCCAGGACACUU; sense: DNA at AGT, 2'-fluoro at CU, [invAb] at 5' end, 3' end, backbone not given here; antisense: sugars from the 5' end rrrmfmmmmfffmmmmfmfmm, backbone not given here) [STAT6 siNA duplex; target GUGUCCUGGACCUCACCAA, site 1830] | 13.2 ± 7.8% | −17.5 ± 12.8% | –
NC(=O)c1cnc(Nc2ccc(N3CCOCC3)cc2)nc1NCc1c(F)ccc(F)c1F [YM341619] | – | – | differentiation of mouse spleen T cells into the Th2 phenotype (mouse spleen T cells): inhibited; AHR (eosinophilia and AHR): inhibited; eosinophilia (eosinophilia and AHR): inhibited
